Measurements reported in patent US20230265116A1, “DEGRADATION OF (EGFR) BY CONJUGATION OF EGFR INHIBITORS WITH E3 LIGASE LIGAND AND METHODS OF USE” (BEIGENE, LTD., priority 2020, published 2023).
Like-named read-outs stand apart in the source and are kept apart here.

Legend:
Assay type in all cases: cell-based
[1] = tested on: EGFR Del19/T790M/C797S (BaF3-DTC cells); test: EGFR degradation HTRF assay, BaF3-DTC cells; conditions: 16h treatment; for DTC Dmax (%): maximum percentage of degradation; for DC50: read-out: DTC DC50
Procedure: BaF3 WT(wild type), BaF3-LTC(L858R/T790M/C797S) and BaF3-DTC(Del19/T790M/C797S) cells are treated with compounds diluted in 0.2% DMSO cell culture medium and incubate for 16h, 37° C., 5% CO2, H1975-#36, H1975-#28, H1975-#23 and HCC827 cells are treated with compounds diluted in 0.2% DMSO cell culture medium on day 2, incubate for 16h, 37° C., 5% CO2.the final concentriation of compounds in all assay is start with 10 uM, 5-fold dilution, total 8 doses were included.
After 16h treatment, add HTRF lysis buffer to each well; seal the plate and incubate 1 hour at room temperature on a plate shaker; Once the cells are lysed, 16 μL of cell lysate are transferred to a PE 384-well HTRF detection plate; 4 μL of pre-mixed HTRF antibodies are added to each well; Cover the plate with a plate sealer, spin 1000 rpm for 1 min, Incubate overnight at room temperature; Read on BMG PheraStar with HTRF protocol (337 nm-665 nm-620 nm).
The inhibition (degradation) percentage of the compound was calculated by the following equation: Inhibition percentage of Compound=100-100×(Signal-low control)/(High control-low control), wherein signal=each test compound group
High control=Cell group with added DMSO and without compound, indicating microplate readings without EGFR degradation;
Dmax is the maximum percentage of inhibition (degradation).
The IC50 (DC50) value of a compound can be obtained by fitting the following equation
Y=Bottom+(TOP−Bottom)/(1+((IC50/X)^hillslope))
Wherein, X and Y are known values, and IC50, Hillslope, Top and Bottom are the parameters obtained by fitting with software. Y is the inhibition percentage (calculated from the equation), X is the concentration of the compound; IC50 is the concentration of the compound when the 50% inhibition is reached. The smaller the IC50 value is, the stronger the inhibitory ability of the compound is. Vice versa, the higher the IC50 value is, the weaker the inhibitory ability of the compound is; Hillslope represents the slope of the fitted curve, generally around 1*; Bottom represents the minimum value of the curve obtained by data fitting, which is generally 0%±20%; Top represents the maximum value of the curve obtained by data fitting, which is generally 100%±20%. The experimental data were fitted by calculating and analyzing with Dotmatics data analysis software.

[2] = biological target: T1, EGFR L858R/T790M/C797S (BaF3-LTC cells) (Homo sapiens, UniProt P00533, C797S/L858R/T790M); test: EGFR degradation HTRF assay, BaF3-LTC cells
T1 construct: expressed in transfected cells; host or cells: BaF3
T1 sequence (P00533 25-1210 T790M/C797S/L858R): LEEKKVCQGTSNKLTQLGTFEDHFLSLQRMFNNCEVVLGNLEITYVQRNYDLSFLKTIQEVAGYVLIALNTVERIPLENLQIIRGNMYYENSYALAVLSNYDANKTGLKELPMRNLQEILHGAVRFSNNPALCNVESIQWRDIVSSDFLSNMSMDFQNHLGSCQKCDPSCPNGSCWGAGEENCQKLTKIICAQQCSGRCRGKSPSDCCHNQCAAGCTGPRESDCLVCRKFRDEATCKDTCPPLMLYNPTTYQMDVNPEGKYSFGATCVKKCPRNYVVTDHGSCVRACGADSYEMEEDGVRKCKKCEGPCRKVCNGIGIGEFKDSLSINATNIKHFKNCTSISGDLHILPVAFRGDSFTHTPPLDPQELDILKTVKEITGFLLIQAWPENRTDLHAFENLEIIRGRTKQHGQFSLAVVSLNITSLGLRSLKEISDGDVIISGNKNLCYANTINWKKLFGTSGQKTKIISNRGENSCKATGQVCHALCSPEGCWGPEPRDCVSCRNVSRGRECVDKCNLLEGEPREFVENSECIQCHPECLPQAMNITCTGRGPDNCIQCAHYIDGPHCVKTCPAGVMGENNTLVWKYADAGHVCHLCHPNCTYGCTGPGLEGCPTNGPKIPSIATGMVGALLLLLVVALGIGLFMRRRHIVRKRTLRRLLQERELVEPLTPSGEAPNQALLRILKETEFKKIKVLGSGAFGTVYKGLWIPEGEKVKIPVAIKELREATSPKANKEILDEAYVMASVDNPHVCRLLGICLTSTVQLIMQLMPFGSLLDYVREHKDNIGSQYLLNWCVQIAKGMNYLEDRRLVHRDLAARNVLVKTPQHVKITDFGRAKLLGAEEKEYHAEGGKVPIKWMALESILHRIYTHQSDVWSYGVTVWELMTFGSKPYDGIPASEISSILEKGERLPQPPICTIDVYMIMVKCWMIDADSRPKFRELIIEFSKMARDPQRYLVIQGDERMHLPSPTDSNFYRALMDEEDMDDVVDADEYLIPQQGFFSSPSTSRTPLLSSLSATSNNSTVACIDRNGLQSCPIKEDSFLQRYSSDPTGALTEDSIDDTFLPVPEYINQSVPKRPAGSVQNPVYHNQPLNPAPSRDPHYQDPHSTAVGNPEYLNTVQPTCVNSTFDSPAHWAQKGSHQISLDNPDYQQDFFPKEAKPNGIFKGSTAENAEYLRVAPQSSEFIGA
Summary of the method: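 Cells treated 16 h at 37 °C, 5% CO2 in medium with 0.2% DMSO; top final concentration 10 uM, 5-fold dilution, 8 doses. Lysates read by HTRF (665/620 nm); degradation % versus DMSO high control, DC50 from four-parameter fit, Dmax as maximal degradation.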

[3] = tested on: EGFR Del19/T790M/C797S (H1975-clone #28); test: EGFR degradation HTRF assay, H1975-clone #28 DTC cells; conditions: H1975 # 28 DTC cells; for DC50: EGFR degradation, IC50 (DC50) from curve fit, read-out: DC50(nM) H1975 # 28 DTC; for Dmax (%) H1975 # 28 DTC: maximum percentage of inhibition (degradation)
Summary of the method: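 The test uses H1975 clonal lines carrying lentiviral mutant EGFR with endogenous copies removed, treated 16h at 37° C., 5% CO2. EGFR left in the lysate is quantified by HTRF, and DC50 is derived from an 8-dose curve starting at 10 uM final.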

[4] = BaF3-LTC, 16h treatment, maximum percentage of degradation, read-out: LTC Dmax (%)
[5] = BaF3-LTC, 16h treatment, read-out: LTC DC50
[6] = BaF3-LTC cells, EGFR degradation, IC50 (DC50) from curve fit, read-out: DC50(nM) BaF3-LTC
[7] = BaF3-LTC cells, maximum percentage of inhibition (degradation), read-out: Dmax (%) BaF3-LTC

Row | Structure (SMILES) | DTC Dmax (%) [1] [%] | DC50 [1] [nM] | Dmax [2, 4] [%] | DC50 [2, 5] [nM] | DC50 [2, 6] [nM] | Dmax [2, 7] [%] | DC50 [3] [nM] | Dmax (%) H1975 # 28 DTC [3] [%]
1 | CCc1cc(Nc2ncc(Br)c(Nc3ccc4nc(C)ccc4c3P(C)(C)=O)n2)c(OC)cc1N1CCC(N2CCN(CC3CN(c4ccc(C5CCC(=O)NC5=O)c(C#N)c4)C3)CC2)CC1 (stereo not shown) [Example 207, 5-(3-((4-(1-(4-((5-bromo-4-((5-(dimethylphosphoryl)-2-methylquinolin-6-yl)amino)pyrimidin-2-yl)amino)-2-ethyl-5-methoxyphenyl)piperidin-4-yl)piperazin-1-yl)methyl)azetidin-1-yl)-2-(2,6-dioxopiperidin-3-yl)benzonitrile] | 90.41 | 6.6 | 91.3 | 13.2 |  |  |  | 
2 | CCc1cc(Nc2ncc(Br)c(Nc3ccc4ncccc4c3P(C)(C)=O)n2)c(OC)cc1N1CCC(N2CCN(CCC3CCN(c4cc(F)c(C5CCC(=O)NC5=O)c(F)c4)CC3)CC2)CC1 (stereo not shown) [Example 202, 3-(4-(4-(2-(4-(1-(4-((5-bromo-4-((5-(dimethylphosphoryl)quinolin-6-yl)amino)pyrimidin-2-yl)amino)-2-ethyl-5-methoxyphenyl)piperidin-4-yl)piperazin-1-yl)ethyl)piperidin-1-yl)-2,6-difluorophenyl)piperidine-2,6-dione] | 93.39 | 7.6 | 87.8 | 18.5 |  |  |  | 
3 | CCc1cc(Nc2ncc(Br)c(Nc3ccc4c(=O)n(C)ccc4c3P(C)(C)=O)n2)c(OC)cc1N1CCC(N2CCN(CCc3cc(F)c(C4CCC(=O)NC4=O)c(F)c3)CC2)CC1 (stereo not shown) [Example 429, 3-(4-(2-(4-(1-(4-((5-bromo-4-((5-(dimethylphosphoryl)-2-methyl-1-oxo-1,2-dihydroisoquinolin-6-yl)amino)pyrimidin-2-yl)amino)-2-ethyl-5-methoxyphenyl)piperidin-4-yl)piperazin-1-yl)ethyl)-2,6-difluorophenyl)piperidine-2,6-dione] | 94.9 | 2.33 | 91.3 | 5.15 |  |  |  | 
4 | COc1cc(N2CCC(N3C[C@H]4C[C@@H]3CN4CCC3CCN(c4cc(F)c(C5CCC(=O)NC5=O)c(F)c4)CC3)CC2)c(C)cc1Nc1ncc(Br)c(Nc2ccc3nccnc3c2P(C)(C)=O)n1 (stereo partly drawn) [Example 267, 3-(4-(4-(2-((1R,4R)-5-(1-(4-((5-bromo-4-((5-(dimethylphosphoryl)quinoxalin-6-yl)amino)pyrimidin-2-yl)amino)-5-methoxy-2-methylphenyl)piperidin-4-yl)-2,5-diazabicyclo[2.2.1]heptan-2-yl)ethyl)piperidin-1-yl)-2,6-difluorophenyl)piperidine-2,6-dione] | 93.96 | 17.9 | 90.3 | 47.7 |  |  |  | 
5 | CCc1cc(Nc2ncc(Br)c(Nc3ccc4nccnc4c3P(C)(C)=O)n2)c(OC)cc1N1CCC(N2CCN(CCc3ccc(C4CCC(=O)NC4=O)c(F)c3)[C@@H](CO)C2)CC1 (stereo partly drawn) [Example 287, 3-(4-(2-((R)-4-(1-(4-((5-bromo-4-((5-(dimethylphosphoryl)quinoxalin-6-yl)amino)pyrimidin-2-yl)amino)-2-ethyl-5-methoxyphenyl)piperidin-4-yl)-2-(hydroxymethyl)piperazin-1-yl)ethyl)-2-fluorophenyl)piperidine-2,6-dione] | 88.55 | 5.2 | 84.8 | 22.9 |  |  |  | 
6 | CCc1cc(Nc2ncc(Br)c(Nc3ccc4nc(C5CC5)ccc4c3P(C)(C)=O)n2)c(OC)cc1N1CCC(N2CCN(CCc3cc(F)c(C4CCC(=O)NC4=O)c(F)c3)CC2)CC1 (stereo not shown) [Example 427, 3-(4-(2-(4-(1-(4-((5-bromo-4-((2-cyclopropyl-5-(dimethylphosphoryl)quinolin-6-yl)amino)pyrimidin-2-yl)amino)-2-ethyl-5-methoxyphenyl)piperidin-4-yl)piperazin-1-yl)ethyl)-2,6-difluorophenyl)piperidine-2,6-dione] | 93.94 | 7.1 | 88.3 | 8.61 |  |  |  | 
7 | CCOc1cc(N2CCC(N3CCN(CC4CN(c5cc(F)c([C@H]6CCC(=O)NC6=O)c(F)c5)C4)CC3)CC2)c(CC)cc1Nc1ncc(Br)c(Nc2ccc3nc(CC)ncc3c2P(C)(C)=O)n1 [Example 590, (R)-3-(4-(3-((4-(1-(4-((5-bromo-4-((5-(dimethylphosphoryl)-2-ethylquinazolin-6-yl)amino)pyrimidin-2-yl)amino)-5-ethoxy-2-ethylphenyl)piperidin-4-yl)piperazin-1-yl)methyl)azetidin-1-yl)-2,6-difluorophenyl)piperidine-2,6-dione] |  |  |  |  | 11.8 | 91.7 | 0.697 | 87.82
8 | CCc1cc(Nc2ncc(Br)c(Nc3ccc4nc(C)ccc4c3P(C)(C)=O)n2)c(OC2CC2)cc1N1CCC(N2CCN(CCCc3cc(F)cc4c3oc(=O)n4C3CCC(=O)NC3=O)CC2)CC1 (stereo not shown) [Example 607, 3-(7-(3-(4-(1-(4-((5-bromo-4-((5-(dimethylphosphoryl)-2-methylquinolin-6-yl)amino)pyrimidin-2-yl)amino)-5-cyclopropoxy-2-ethylphenyl)piperidin-4-yl)piperazin-1-yl)propyl)-5-fluoro-2-oxobenzo[d]oxazol-3(2H)-yl)piperidine-2,6-dione] |  |  |  |  | 14.2 | 86.8 | 1.07 | 78.76
9 | CCc1cc(Nc2ncc(Br)c(Nc3ccc4nc(COC)ccc4c3P(C)(C)=O)n2)c(OC)cc1N1CCC(N2CCN(CCc3cc(F)c(C4CCC(=O)NC4=O)c(F)c3)CC2)CC1 (stereo not shown) [Example 690, 3-(4-(2-(4-(1-(4-((5-bromo-4-((5-(dimethylphosphoryl)-2-(methoxymethyl)quinolin-6-yl)amino)pyrimidin-2-yl)amino)-2-ethyl-5-methoxyphenyl)piperidin-4-yl)piperazin-1-yl)ethyl)-2,6-difluorophenyl)piperidine-2,6-dione] |  |  |  |  | 6.66 | 90.6 | 0.689 | 77.81
10 | CCOc1cc(N2CCC(N3CCN(CC4CN(c5cc(F)c(C6CCC(=O)NC6=O)c(F)c5)C4)CC3)CC2)c(CC)cc1Nc1ncc(Br)c(Nc2ccc3c(=O)n(C)ncc3c2P(C)(C)=O)n1 (stereo not shown) [Example 535, 3-(4-(3-((4-(1-(4-((5-bromo-4-((5-(dimethylphosphoryl)-2-methyl-1-oxo-1,2-dihydrophthalazin-6-yl)amino)pyrimidin-2-yl)amino)-5-ethoxy-2-ethylphenyl)piperidin-4-yl)piperazin-1-yl)methyl)azetidin-1-yl)-2,6-difluorophenyl)piperidine-2,6-dione] |  |  |  |  | 9.87 | 93.8 | 1.13 | 82.79
11 | CCOc1cc(N2CCC(N3CCN(C(=O)[C@H]4CN(c5cc(F)c([C@H]6CCC(=O)NC6=O)c(F)c5)CC4(C)C)CC3)CC2)c(CC)cc1Nc1ncc(Br)c(Nc2ccc3nc(C)ccc3c2P(C)(C)=O)n1 [Example 747, (R)-3-(4-((R)-4-(4-(1-(4-((5-bromo-4-((5-(dimethylphosphoryl)-2-methylquinolin-6-yl)amino)pyrimidin-2-yl)amino)-5-ethoxy-2-ethylphenyl)piperidin-4-yl)piperazine-1-carbonyl)-3,3-dimethylpyrrolidin-1-yl)-2,6-difluorophenyl)piperidine-2,6-dione] |  |  |  |  | 19.8 |  | 2.91 | 76.51
